Where a chain is given by its changes, count along the chain named.
Assays:
FLT3 D835Y = biological target: T1, FLT3 D835Y (Homo sapiens, UniProt P36888, D835Y); experiment: DiscoverX KINOMEscan competition binding, FLT3 D835Y
T1 construct: purchased DiscoverX (KINOMEscan)
T1 sequence (P36888 27-993 D835Y): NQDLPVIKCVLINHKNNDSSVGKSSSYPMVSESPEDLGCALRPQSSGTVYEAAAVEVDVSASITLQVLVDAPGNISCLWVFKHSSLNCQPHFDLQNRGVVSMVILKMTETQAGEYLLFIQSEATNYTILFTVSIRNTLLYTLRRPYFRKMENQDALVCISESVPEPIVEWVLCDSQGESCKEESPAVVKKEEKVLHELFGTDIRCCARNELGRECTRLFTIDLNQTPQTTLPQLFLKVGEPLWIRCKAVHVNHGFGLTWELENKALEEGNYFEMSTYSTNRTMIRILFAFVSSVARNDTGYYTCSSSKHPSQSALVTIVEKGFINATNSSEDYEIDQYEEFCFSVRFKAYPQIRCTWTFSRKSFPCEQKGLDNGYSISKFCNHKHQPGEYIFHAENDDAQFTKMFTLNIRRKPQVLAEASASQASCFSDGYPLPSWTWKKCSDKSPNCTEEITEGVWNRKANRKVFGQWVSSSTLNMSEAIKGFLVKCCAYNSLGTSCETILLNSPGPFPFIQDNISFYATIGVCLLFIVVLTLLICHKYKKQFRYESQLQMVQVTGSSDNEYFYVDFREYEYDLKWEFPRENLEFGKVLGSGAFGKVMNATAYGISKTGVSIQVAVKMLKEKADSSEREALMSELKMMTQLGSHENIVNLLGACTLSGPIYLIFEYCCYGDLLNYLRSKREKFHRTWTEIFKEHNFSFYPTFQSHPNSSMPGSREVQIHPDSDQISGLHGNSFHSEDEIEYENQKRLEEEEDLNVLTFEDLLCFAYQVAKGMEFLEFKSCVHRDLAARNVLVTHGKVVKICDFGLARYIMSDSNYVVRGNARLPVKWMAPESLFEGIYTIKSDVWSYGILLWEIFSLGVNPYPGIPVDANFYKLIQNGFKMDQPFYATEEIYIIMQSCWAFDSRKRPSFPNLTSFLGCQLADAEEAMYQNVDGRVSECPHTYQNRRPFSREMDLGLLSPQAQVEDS

FLT3 K663Q = biological target: T2, FLT3 K663Q (Homo sapiens, UniProt P36888, K663Q); experiment: DiscoverX KINOMEscan competition binding, FLT3 K663Q
T2 construct: purchased DiscoverX (KINOMEscan)
T2 sequence (P36888 27-993 K663Q): T1 sequence (P36888 27-993 D835Y) with K637Q, Y809D

FLT3 R834Q = biological target: T3, FLT3 R834Q (Homo sapiens, UniProt P36888, R834Q); experiment: DiscoverX KINOMEscan competition binding, FLT3 R834Q
T3 construct: purchased DiscoverX (KINOMEscan)
T3 sequence (P36888 27-993 R834Q): T1 sequence (P36888 27-993 D835Y) with R808Q, Y809D

Structure (SMILES)	Kd (FLT3 D835Y)	Kd (FLT3 K663Q)	Kd (FLT3 R834Q)
F[C@H]1CCNC[C@@H]1Nc1cncc(-c2cnc3cc(OC4CC4)ccn23)n1 [Compound 12, 6-(7-cyclopropoxyimidazo[1,2-a]pyridin-3-yl)-N-((3S,4S)-4-fluoropiperidin-3-yl)pyrazin-2-amine]	1.1 nM	13 nM	18 nM
COc1cc2ncc(-c3cncc(N[C@H]4CNCC[C@@H]4F)n3)n2nc1C1CC1 [Compound 24, 6-(6-cyclopropyl-7-methoxyimidazo[1,2-b]pyridazin-3-yl)-N-((3S,4S)-4-fluoropiperidin-3-yl)pyrazin-2-amine]	0.74 nM	3.8 nM	1.8 nM
COc1cc2ncc(-c3ccnc(N[C@H]4CNCC[C@@H]4F)n3)n2nc1C1CC1 [Compound 51, 4-(6-cyclopropyl-7-methoxyimidazo[1,2-b]pyridazin-3-yl)-N-((3S,4S)-4-fluoropiperidin-3-yl)pyrimidin-2-amine]	0.35 nM	0.82 nM	1.1 nM

Results, then the molecule that gave them:

Kd (FLT3 D835Y)	Kd (FLT3 K663Q)	Kd (FLT3 R834Q)	Structure (SMILES)
0.69 nM	21 nM	14 nM	CC(O)(c1cn2c(-c3ccnc(N[C@H]4CNCC[C@@H]4F)n3)cnc2cn1)C(F)(F)F (single isomer, unassigned) [Compound 72]
0.6 nM	18 nM	9.3 nM	COc1cc2ncc(-c3cncc(N[C@H]4CNC[C@@H]4F)n3)n2nc1C1CC1 [Compound 22, 6-(6-cyclopropyl-7-methoxyimidazo[1,2-b]pyridazin-3-yl)-N-((3S,4S)-4-fluoropyrrolidin-3-yl)pyrazin-2-amine]
0.15 nM	2.9 nM	1.4 nM	COc1cc2ncc(-c3ccnc(N[C@@H]4CCCNC4)n3)n2cc1C(C)(C)O [Compound 44, (R)-2-(7-methoxy-3-(2-(piperidin-3-ylamino)pyrimidin-4-yl)imidazo[1,2-a]pyridin-6-yl)propan-2-ol]
0.41 nM	2.2 nM	1.4 nM	COc1cc2ncc(-c3ccnc(N[C@H]4CNC[C@@H]4F)n3)n2nc1C1CC1 [Compound 49, 4-(6-cyclopropyl-7-methoxyimidazo[1,2-b]pyridazin-3-yl)-N-((3S,4S)-4-fluoropyrrolidin-3-yl)pyrimidin-2-amine]

From patent US20250154144A1 (CHILDREN'S HOSPITAL MEDICAL CENTER, priority 2021, published 2025)
